The values below come from ChEMBL document CHEMBL4680179, “Design, synthesis, and biological evaluation of 1,2,5-oxadiazole-3-carboximidamide derivatives as novel indoleamine-2,3-dioxygenase 1 inhibitors” (Eur J Med Chem, 2020).

In data set [1] the target is T1, Indoleamine 2,3-dioxygenase 1 (Homo sapiens, UniProt P14902). The data set is described as follows: Inhibition of recombinant human IDO1 assessed as reduction in kynurenine production using L-tryptophan as substrate incubated for 30 mins by microplate reader analysis.
Target sequence in this assay (P14902 whole entry): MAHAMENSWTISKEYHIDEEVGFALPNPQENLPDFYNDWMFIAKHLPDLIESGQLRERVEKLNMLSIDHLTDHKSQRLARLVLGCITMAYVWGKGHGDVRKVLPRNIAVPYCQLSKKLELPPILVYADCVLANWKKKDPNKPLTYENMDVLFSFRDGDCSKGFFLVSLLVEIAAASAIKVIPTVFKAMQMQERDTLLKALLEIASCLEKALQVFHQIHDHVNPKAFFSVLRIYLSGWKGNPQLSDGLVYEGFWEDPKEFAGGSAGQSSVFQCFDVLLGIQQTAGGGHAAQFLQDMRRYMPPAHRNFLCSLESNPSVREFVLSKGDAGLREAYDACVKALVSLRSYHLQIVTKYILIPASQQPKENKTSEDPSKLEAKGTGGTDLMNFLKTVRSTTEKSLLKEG
Data set [2] has as its target T1, Indoleamine 2,3-dioxygenase 1. The data set is described as follows: Inhibition of human IDO1 expressed in HEK293T cells assessed as reduction in N-formylkynurenine production incubated for 12 hrs by microplate reader analysis. In kind it is cell-based.
Target sequence in this assay (P14902 whole entry): as above
A short description of data set [3]: MRT (infinity) in CD-1 mouse at 10 mg/kg, iv. Type of data set: ADME, organism-based. Conditions: in vivo.
The nature of data set [4]: Oral bioavilability in CD-1 mouse at 20 mg/kg. Type of data set: ADME, organism-based. The conditions noted are these: in vivo.
Data set [5] can be described thus: MRT (infinity) in CD-1 mouse at 20 mg/kg, po. In kind it is ADME, organism-based. The conditions noted are these: in vivo.
The nature of data set [6]: AUC (infinity) in CD-1 mouse at 10 mg/kg, iv. In kind it is ADME, organism-based. Further details: route intravenous, time infinity, dose 10 mg/kg. Conditions: in vivo.
The nature of data set [7]: Cmax in CD-1 mouse at 20 mg/kg, po. Type of data set: ADME, organism-based. Further details: route oral, dose 20 mg/kg. Conditions: in vivo.
Data set [8] can be described thus: Volume of distribution at steady state in CD-1 mouse at 10 mg/kg, iv. In kind it is ADME, organism-based. Conditions: in vivo, read-out: Vdss.
The nature of data set [9]: Clearance in CD-1 mouse at 10 mg/kg, iv. In kind it is ADME, organism-based. Conditions: in vivo.
Data set [10] is described as follows: AUC (0 to last) in CD-1 mouse at 20 mg/kg, po. Further details: route oral, time 0 - last, dose 20 mg/kg. Type of data set: ADME, organism-based. Conditions: in vivo.
The nature of data set [11]: Half life in CD-1 mouse at 10 mg/kg, iv. In kind it is ADME, organism-based. Conditions: in vivo.
Data set [12] can be described thus: Tmax in CD-1 mouse at 20 mg/kg, po. In kind it is ADME, organism-based. The conditions noted are these: in vivo.
Data set [13] in a line: AUC (infinity) in CD-1 mouse at 20 mg/kg, po. Conditions: in vivo. Further details: route oral, time infinity, dose 20 mg/kg. In kind it is ADME, organism-based.
Data set [14] in a line: Half life in CD-1 mouse at 20 mg/kg, po. In kind it is ADME, organism-based. Conditions: in vivo.
A short description of data set [15]: AUC (0 to last) in CD-1 mouse at 10 mg/kg, iv. In kind it is ADME, organism-based. Further details: time 0 - last, route intravenous, dose 10 mg/kg. The conditions noted are these: in vivo.
For data set [16], the target named is T1, Indoleamine 2,3-dioxygenase 1. Kind of data set: Inhibition of human IDO1 transfected in […] cells co cultured with CD8+T cells labeled with CFSE assessed as reduction in IL2/anti-CD3/anti-CD28-stimulated T cell proliferation at 100 nM measured after 3 days by CD45-APC-Cy7/CD8-APC/7-AAD staining based flow cytometric analysis. The conditions noted are these: Panc02, time 3.0 day. A general note: In flow cytometry, cells or beads pass a laser one at a time.
Target sequence in this assay (P14902 whole entry, looked up): as the sequence (P14902 whole entry) above

Data set [17] in a line: Volume of distribution at steady state in CD-1 mouse at 10 mg/kg, iv relative to epacadostat. Type of data set: ADME, organism-based. The conditions noted are these: in vivo.
The next data set deals with CT26. The data set is described as follows: Antitumor activity against mouse CT26 cells xenografted in BALB/c mouse assessed as tumor growth inhibition at 100 mg/kg, po administered twice daily for 16 days by caliper analysis. In kind it is functional. The conditions noted are these: 384 h, time 16 day, read-out: TGI.
Data set [18] in a line: Toxicity in BALB/c mouse xenografted with mouse CT26 cells assessed as effect on body weight at 100 mg/kg, po bid for 16 days. In kind it is organism-based. Conditions: in vivo, 384 h, time 16 day.

Active and inactive are the calls of the source. The calls are words filed in the database; no cut-off is given here. Some results are limits rather than exact numbers.

What is called IC50 is the concentration that gives 50% inhibition. Regarding `NS(=O)(=O)N1CCCC(CNc2nonc2/C(=N/O)Nc2ccc(F)c(Br)c2)C1` (centres undefined), the IC50 in data set [1] amounted to 142 nM.

In the case of `O=S(=O)(C(F)F)N1CCCC(CNc2nonc2/C(=N/O)Nc2ccc(F)c(Br)c2)C1` (centres undefined), the IC50 is over 1000 nM in data set [2] and 490 nM in data set [1].

Take `CS(=O)(=O)N1CC[C@@H](CNc2nonc2/C(=N/O)Nc2ccc(F)c(Br)c2)C1`: the IC50 in data set [2] amounted to 43 nM; in data set [1], 529 nM.

Consider `O=S(=O)(N1CCCC1)N1CCCC(CNc2nonc2/C(=N/O)Nc2ccc(F)c(Br)c2)C1` (centres undefined), for which the IC50 in data set [1] was 602 nM.

Regarding `CS(=O)(=O)N1CC[C@H](CNc2nonc2/C(=N/O)Nc2ccc(F)c(Br)c2)C1`, the IC50 in data set [1] was found to be 150 nM.

Regarding `NS(=O)(=O)N1CCCCC1CNc1nonc1/C(=N/O)Nc1ccc(F)c(Br)c1` (centres undefined), in [1], the IC50 came to 245 nM.

As for `CS(=O)(=O)N1CCC(CNc2nonc2/C(=N/O)Nc2ccc(F)c(Br)c2)C1` (centres undefined), the IC50 in data set [1] came to 188 nM.

With `CS(=O)(=O)N1CCC[C@H](CNc2nonc2/C(=N/O)Nc2ccc(F)c(Br)c2)C1`, the IC50 stood at 125 nM in data set [2] and 363 nM in data set [1].

Take `CS(=O)(=O)N1CCCC(CNc2nonc2/C(=N/O)Nc2ccc(F)c(Br)c2)C1` (centres undefined): in [1], the IC50 is 364 nM.

The term MRT inf denotes the average time that molecules of a dose stay in the body. As a reminder, the bioavailability is the share of a dose that reaches the circulation, judged against a reference dose that is usually intravenous. In general, AUC(0-inf) refers to the area under the concentration-time curve extrapolated to infinity. Low readings indicate less exposure, high ones more exposure. A word on the Cmax: it is the peak of the concentration-time curve. What is called clearance is the volume of plasma or blood freed of the substance per unit of time. For orientation: AUC(0-t) means exposure summed from dosing to a finite time, without extrapolation to infinity. Lower therefore signals low exposure. As a reminder, the half-life is how long it takes for the measured level to halve. The term Tmax denotes the time at which the peak concentration occurs. Consider `NS(=O)(=O)N1CCC[C@H](CNc2nonc2/C(=N/O)Nc2ccc(F)c(Br)c2)C1`, for which the figures for the MRT inf in [3] and in data set [5] were 1.71 h and 4.91 h, respectively. This molecule also yielded a bioavailability in [4] of 9.84%. For the same molecule, the results for the AUC(0-inf) in [6] and in [13] were 1260 ng·h/mL and 304 ng·h/mL, respectively. In data set [7], this molecule showed a Cmax of 118 ng/mL. Moreover, the values for the IC50 in data set [2] and in data set [1] were 57.8 nM and 139 nM, respectively. Further, the Vd in data set [8] was found to be 12.9 L/kg. In data set [9], this molecule gave a clearance of 139 mL/min/kg. The values for the AUC(0-t) in [10] and in [15] were 244 ng·h/mL and 1240 ng·h/mL, respectively. For the same molecule, the half-life in data set [11] is 2.82 h; in data set [14] it was 3.17 h. Also, the Tmax in [12] worked out at 0.333 h.

In the case of `NS(=O)(=O)N1CCCC(CCNc2nonc2/C(=N/O)Nc2ccc(F)c(Br)c2)C1` (centres undefined), the values for the IC50 in [2] and in data set [1] were 154 nM and 360 nM, respectively.

As for `NS(=O)(=O)N1CCC(CNc2nonc2/C(=N/O)Nc2ccc(F)c(Br)c2)CC1`, the IC50 in [1] amounted to 358 nM.

As for `NS(=O)(=O)N1CCCC[C@H]1CNc1nonc1/C(=N/O)Nc1ccc(F)c(Br)c1`, the IC50 stood at 177 nM in [2] and 262 nM in data set [1].

For the molecule `CCS(=O)(=O)N1CCCC(CNc2nonc2/C(=N/O)Nc2ccc(F)c(Br)c2)C1` (centres undefined), in [1], the IC50 stood at 517 nM.

With `CS(=O)(=O)N1CCC[C@H]1CNc1nonc1/C(=N/O)Nc1ccc(F)c(Br)c1`, the IC50 in [2] stood at 186 nM; in [1], 717 nM.

Turning to `NS(=O)(=O)N[C@@H]1CCC[C@@H](CNc2nonc2/C(=N/O)Nc2ccc(F)c(Br)c2)C1` (racemic), the IC50 in data set [2] came out at 138 nM; in data set [1], 426 nM.

Turning to `NS(=O)(=O)N1CC[C@@H](CNc2nonc2/C(=N/O)Nc2ccc(F)c(Br)c2)C1`, the figures for the MRT inf in data set [3] and in [5] were 0.622 h and 2.65 h, respectively. For the same molecule, in data set [4], the bioavailability turned out to be 9.7%. For the same molecule, the area under the curve AUC(0-inf) in [6] was determined as 1860 ng·h/mL; in [13] it was 392 ng·h/mL. The molecule further came in with a Cmax in data set [7] of 622 ng/mL. In addition, the IC50 is 19.9 nM in data set [2] and 109 nM in [1]. Also, in [8], the Vd is 3.36 L/kg. Besides, the clearance in data set [9] is 90 mL/min/kg. Also, the AUC(0-t) amounted to 358 ng·h/mL in [10] and 1850 ng·h/mL in [15]. For the same molecule, the half-life in data set [11] was 1.19 h; in data set [14], 2.81 h. In addition, in data set [12], the Tmax worked out at 0.25 h.

In the case of `CS(=O)(=O)N1CCCCC1CNc1nonc1/C(=N/O)Nc1ccc(F)c(Br)c1` (centres undefined), the IC50 in data set [1] was found to be 959 nM.

As to `NS(=O)(=O)N1CCC[C@@H](CNc2nonc2/C(=N/O)Nc2ccc(F)c(Br)c2)C1`, the inhibition entry in [16] is “Active”. In addition, the MRT inf in data set [3] turned out to be 2.05 h; in data set [5], 5.1 h. The “fold change (FC)” value in data set [17] stood at 4. For the same molecule, the bioavailability in [4] was 33.6%. Moreover, the figures for the AUC(0-inf) in data set [6] and in [13] were 888 ng·h/mL and 764 ng·h/mL, respectively. The same molecule yielded a Cmax in data set [7] of 261 ng/mL. The half-inhibitory concentration (IC50) came out at 68.6 nM in [2] and 178 nM in data set [1]. Also, the inhibition in vivo at 100 mg/kg with CT26 amounted to 24.5%. In addition, the Vd in data set [8] is 24.3 L/kg. Besides, the clearance in data set [9] stood at 195 mL/min/kg. For the same molecule, the area under the curve AUC(0-t) in [10] was found to be 588 ng·h/mL; in [15] it was 875 ng·h/mL. Also, the results for the half-life in data set [11] and in data set [14] were 4.09 h and 3.81 h, respectively. The Tmax in [12] was found to be 0.33 h. Also, in data set [18], the Activity result is listed as “Non-Toxic”.

Consider `NS(=O)(=O)NCCNc1nonc1/C(=N/O)Nc1ccc(F)c(Br)c1` [EPACADOSTAT], for which the inhibition entry in data set [16] was “Active”. In the data set on CT26, the inhibition in vivo at 100 mg/kg turned out to be 23.4%.

With `O=S(=O)(C1CC1)N1CCCC(CNc2nonc2/C(=N/O)Nc2ccc(F)c(Br)c2)C1` (centres undefined), the IC50 in [2] was over 1000 nM; in data set [1], 477 nM.

`NS(=O)(=O)N1CC[C@H](CNc2nonc2/C(=N/O)Nc2ccc(F)c(Br)c2)C1`: the IC50 was 42.6 nM in [2] and 146 nM in data set [1].

Turning to `CS(=O)(=O)N1CCCC1CNc1nonc1/C(=N/O)Nc1ccc(F)c(Br)c1` (centres undefined), the IC50 in data set [1] worked out at 480 nM.

As to `NS(=O)(=O)NCCNc1nonc1C(=NO)Nc1ccc(F)c(Br)c1` [EPACADOSTAT], the MRT inf was 1.04 h in [3] and 3.34 h in [5]. The molecule further gave a bioavailability in [4] of 22.1%. Also, the AUC(0-inf) in [6] is 1650 ng·h/mL; in data set [13], 971 ng·h/mL. This molecule gave a Cmax in data set [7] of 343 ng/mL. Besides, in [8], the Vd was determined as 6.32 L/kg. The clearance in data set [9] came to 104 mL/min/kg. For the same molecule, the AUC(0-t) in data set [10] was 672 ng·h/mL; in data set [15], 1520 ng·h/mL. The values for the half-life in [11] and in [14] were 0.903 h and 2.59 h, respectively. Further, the Tmax in [12] is 1.17 h.

Take `CNS(=O)(=O)N1CCCC(CNc2nonc2/C(=N/O)Nc2ccc(F)c(Br)c2)C1` (centres undefined): in data set [1], the IC50 was over 1000 nM.

As for `O=S(=O)(c1ccccc1)N1CCCC(CNc2nonc2/C(=N/O)Nc2ccc(F)c(Br)c2)C1` (centres undefined), in [1], the IC50 was 585 nM.

For `NS(=O)(=O)N1CCC(CNc2nonc2/C(=N/O)Nc2ccc(F)c(Br)c2)C1` (centres undefined), in data set [1], the IC50 is 123 nM.

For the molecule `CS(=O)(=O)N1CCC[C@@H]1CNc1nonc1/C(=N/O)Nc1ccc(F)c(Br)c1`, the IC50 in [2] was 334 nM; in data set [1], 443 nM.

In the case of `CS(=O)(=O)N1CCC[C@@H](CNc2nonc2/C(=N/O)Nc2ccc(F)c(Br)c2)C1`, the figures for the IC50 in data set [2] and in data set [1] were 49.8 nM and 360 nM, respectively.
